In the supplement of paper PMC5908809:

Assays:
NK-YS (IL-2 2.5 ng/mL) [1] = test: drug sensitivity score (DSS) (DSS units); higher = more sensitive; extreme values may be limits of the assay; settings: 72 h
SNK-6 (IL-2 2.5 ng/mL) [2] = test: as above; settings: 72 h
[3] = tested on: normal primary NK cells, pool 1 (3 donors) (IL-2 2.5 ng/mL); test: as above; settings: 72 h
KAI3 (IL-2 2.5 ng/mL) [4] = test: as above; settings: 72 h
[5] = tested on: normal primary NK cells, pool 2 (3 donors) (IL-2 2.5 ng/mL); test: as above; settings: 72 h
[6] = tested on: normal primary NK cells, pool 3 (3 donors) (IL-2 2.5 ng/mL); test: as above; settings: 72 h
KHYG-1 (IL-2 2.5 ng/mL) [7] = test: as above; settings: 72 h
[8] = tested on: normal primary NK cells, pool 1 (3 donors), resting (IL-2 0 ng/mL); test: as above; settings: 72 h
DERL-7 (IL-2 2.5 ng/mL) [9] = test: as above; settings: 72 h
IMC-1 (IL-2 20 ng/mL) [10] = test: as above; settings: 72 h
YT (IL-2 2.5 ng/mL) [11] = test: as above; settings: 72 h
NKL (IL-2 2.5 ng/mL) [12] = test: as above; settings: 72 h
NK-92 (IL-2 2.5 ng/mL) [13] = test: as above; settings: 72 h
NK-YS (IL-2 2.5 ng/mL) [14] = test: percent inhibition of viability; higher = more inhibition; settings: 72 h
SNK-6 (IL-2 2.5 ng/mL) [15] = test: as above; settings: 72 h
[16] = tested on: normal primary NK cells, pool 1 (3 donors) (IL-2 2.5 ng/mL); test: as above; settings: 72 h
KAI3 (IL-2 2.5 ng/mL) [17] = test: as above; settings: 72 h
[18] = tested on: normal primary NK cells, pool 2 (3 donors) (IL-2 2.5 ng/mL); test: as above; settings: 72 h
[19] = tested on: normal primary NK cells, pool 3 (3 donors) (IL-2 2.5 ng/mL); test: as above; settings: 72 h
KHYG-1 (IL-2 2.5 ng/mL) [20] = test: as above; settings: 72 h
[21] = tested on: normal primary NK cells, pool 1 (3 donors), resting (IL-2 0 ng/mL); test: as above; settings: 72 h
DERL-7 (IL-2 2.5 ng/mL) [22] = test: as above; settings: 72 h
IMC-1 (IL-2 20 ng/mL) [23] = test: as above; settings: 72 h
YT (IL-2 2.5 ng/mL) [24] = test: as above; settings: 72 h
NKL (IL-2 2.5 ng/mL) [25] = test: as above; settings: 72 h
NK-92 (IL-2 2.5 ng/mL) [26] = test: as above; settings: 72 h
[27] = tested on: normal NK cells expanded with K562-aAPC; test: as above; settings: 72 h, IL-2 2.5 ng/mL
Method: (§1)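 Drug sensitivity and resistance testing on K562-aAPC-expanded normal NK cells: 5 concentrations (10-fold steps over a 10,000-fold range), 72 h at 37 °C, viability by CellTiter-Glo normalised to DMSO and benzethonium chloride controls; DSS from the fitted curve.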

[28] = tested on: normal NK cells expanded with K562-aAPC; test: drug sensitivity score (DSS) (DSS units); higher = more sensitive; extreme values may be limits of the assay; settings: 72 h; IL-2 2.5 ng/mL
Method: as §1

CNc1nc(-c2ccc3c(N)n[nH]c3c2)cc(N2C[C@@H](C(=O)NC3CCCCC3)CC[C@H]2C)n1 (max concentration tested 10000 nM)
Settings	drug sensitivity score
DERL-7 (IL-2 2.5 ng/mL) [9]	13.6
IMC-1 (IL-2 20 ng/mL) [10]	0
KAI3 (IL-2 2.5 ng/mL) [4]	2.49
KHYG-1 (IL-2 2.5 ng/mL) [7]	0
NK-92 (IL-2 2.5 ng/mL) [13]	1.22
NK-YS (IL-2 2.5 ng/mL) [1]	0.64
NKL (IL-2 2.5 ng/mL) [12]	1.31
SNK-6 (IL-2 2.5 ng/mL) [2]	0
YT (IL-2 2.5 ng/mL) [11]	0
[3]	3.79
[5]	1.91
[6]	2.05
[8]	2.84
[28]	5.66

percent inhibition of viability [%]
Settings	1 nM	10 nM	100 nM	1000 nM	10000 nM
DERL-7 (IL-2 2.5 ng/mL) [22]	-6.71	4.6	17.5	62.3	73.1
IMC-1 (IL-2 20 ng/mL) [23]	-3.83	-6.62	-4.53	-20.3	-19.2
KAI3 (IL-2 2.5 ng/mL) [17]	5.2	2.8	14.8	12.4	22.3
KHYG-1 (IL-2 2.5 ng/mL) [20]	2.18	-0.82	1.06	6.54	6.11
NK-92 (IL-2 2.5 ng/mL) [26]	-8.7	-9.38	-10.8	12.7	15.9
NK-YS (IL-2 2.5 ng/mL) [14]	-0.39	1.82	1.37	11.8	12.3
NKL (IL-2 2.5 ng/mL) [25]	-8.02	-17.1	-8.23	7.46	19
SNK-6 (IL-2 2.5 ng/mL) [15]	-15.1	-5.82	-4.32	-18.6	-16.6
YT (IL-2 2.5 ng/mL) [24]	0.91	-0.65	-0.96	-0.24	-1.61
[16]	-8.1	-7.19	-3.29	25.5	14.9
[18]	-9.37	-17	-3.8	12.4	20.9
[19]	-9.17	-11.9	-6.95	18.4	14.4
[21]	-13.3	-12.7	-3.91	21.5	9.91
[27]	-0.16	0.82	7.33	29	34.4
